From article PMC6572064, “Discovery of 2-(1-(3-(4-Chloroxyphenyl)-3-oxo- propyl)pyrrolidine-3-yl)-1H-benzo[d]imidazole-4-carboxamide: A Potent Poly(ADP-ribose) Polymerase (PARP) Inhibitor for Treatment of Cancer” (Molecules, 2019)
Read-outs that look alike come from different tables or passages of the source.

What was measured:
[1] = target: T1, PARP-1 (Homo sapiens, UniProt P09874); assay: PARP-1 inhibition assay (PARP-1 Chemiluminescent Assay Kit, BPS Bioscience); assay type: biochemical; settings: 10 nM compound
T1 construct: purchased BPS Bioscience 80569
Description: (§1) The PARP-1 and PARP-2 inhibition assays were performed in outsourcing, by a CRO company, Shanghai Medicilon Inc. (Shanghai, China). […] Briefly, PARP-1 or PARP-2 biotinylated substrate was incubated with compounds or solvent control at varying concentrations and an assay buffer containing the PARP-1 or PARP-2 enzyme.

[2] = target: T2, PARP-2 (Homo sapiens, UniProt Q9UGN5); assay: PARP-2 inhibition assay (PARP-2 Chemiluminescent Assay Kit, BPS Bioscience); assay type: biochemical; settings: 10 nM compound
T2 construct: purchased BPS Bioscience 80552
Description: as §1

[3] = test system: MDA-MB-436 (a BRCA-1-mutated breast cancer cell line); assay: Cell proliferation assay, three-day, CellTiter-Glo, MDA-MB-436; assay type: cell-based; settings: Homo sapiens; for inhibition at 0.00508 µM: MDA-MB-436, MDA-MB-436, Conc. 0.00508 uM; for inhibition at 0.0152 µM: MDA-MB-436, MDA-MB-436, Conc. 0.0152 uM; for inhibition at 0.0457 µM: MDA-MB-436, MDA-MB-436, Conc. 0.0457 uM; for inhibition at 0.41 µM: MDA-MB-436, MDA-MB-436, Conc. 0.41 uM; for inhibition at 1.23 µM: MDA-MB-436, MDA-MB-436, Conc. 1.23 uM; for inhibition at 3.7 µM: MDA-MB-436, MDA-MB-436, Conc. 3.70 uM; for inhibition at 11.11 µM: MDA-MB-436, MDA-MB-436, Conc. 11.11 uM; for inhibition at 33.33 µM: MDA-MB-436, MDA-MB-436, Conc. 33.33 uM; for inhibition at 100 µM: MDA-MB-436, MDA-MB-436, Conc. 100.00 uM
Description: (§2) A three-day assay was conducted. A cell suspension was prepared. Cell density was counted by an automated cell counter and then diluted to the required density, according to seeding density. 50 μL cells were seeded into 384-well plate in growth medium according to the plate map. The cells were incubated at 37 °C, 5% CO2 overnight.
(§3) 200× compound solution in DMSO was prepared and diluted with growth medium to 26× final concentration by addition of 26 μL 200× compounds to 174 μL growth medium. Then 2 μL of diluted compound solution was added to cells and the cell was incubated at 37 °C, 5% CO2 for 72 h.
(§4) The assay plate was equilibrated to room temperature prior to measurement. 15 μL of CellTiter-Glo Reagent was added into each well and the contents were mixed for 2 min on an orbital shaker to induce cell lysis. The cells were incubated at room temperature for 60 min to stabilize luminescent signal. Luminescence was recorded on the Envision system.

[4] = test system: CAPAN-1 (a BRCA-2-mutated pancreatic cancer cell line); assay: Cell proliferation assay, three-day, CellTiter-Glo, CAPAN-1; assay type: cell-based; settings: Homo sapiens; for inhibition at 0.00508 µM: CAPAN-1, 0.00508 uM; for inhibition at 0.0152 µM: CAPAN-1, 0.0152 uM; for inhibition at 0.0457 µM: CAPAN-1, 0.0457 uM; for inhibition at […]: CAPAN-1, 0.14 uM; for inhibition at 0.41 µM: CAPAN-1, 0.41 uM; for inhibition at 1.23 µM: CAPAN-1, 1.23 uM; for inhibition at 3.7 µM: CAPAN-1, 3.70 uM; for inhibition at 11.11 µM: CAPAN-1, 11.11 uM; for inhibition at 33.33 µM: CAPAN-1, 33.33 uM; for inhibition at 100 µM: CAPAN-1, 100.00 uM
Description: as §2, §3, §4

T1 sequence (P09874 whole entry): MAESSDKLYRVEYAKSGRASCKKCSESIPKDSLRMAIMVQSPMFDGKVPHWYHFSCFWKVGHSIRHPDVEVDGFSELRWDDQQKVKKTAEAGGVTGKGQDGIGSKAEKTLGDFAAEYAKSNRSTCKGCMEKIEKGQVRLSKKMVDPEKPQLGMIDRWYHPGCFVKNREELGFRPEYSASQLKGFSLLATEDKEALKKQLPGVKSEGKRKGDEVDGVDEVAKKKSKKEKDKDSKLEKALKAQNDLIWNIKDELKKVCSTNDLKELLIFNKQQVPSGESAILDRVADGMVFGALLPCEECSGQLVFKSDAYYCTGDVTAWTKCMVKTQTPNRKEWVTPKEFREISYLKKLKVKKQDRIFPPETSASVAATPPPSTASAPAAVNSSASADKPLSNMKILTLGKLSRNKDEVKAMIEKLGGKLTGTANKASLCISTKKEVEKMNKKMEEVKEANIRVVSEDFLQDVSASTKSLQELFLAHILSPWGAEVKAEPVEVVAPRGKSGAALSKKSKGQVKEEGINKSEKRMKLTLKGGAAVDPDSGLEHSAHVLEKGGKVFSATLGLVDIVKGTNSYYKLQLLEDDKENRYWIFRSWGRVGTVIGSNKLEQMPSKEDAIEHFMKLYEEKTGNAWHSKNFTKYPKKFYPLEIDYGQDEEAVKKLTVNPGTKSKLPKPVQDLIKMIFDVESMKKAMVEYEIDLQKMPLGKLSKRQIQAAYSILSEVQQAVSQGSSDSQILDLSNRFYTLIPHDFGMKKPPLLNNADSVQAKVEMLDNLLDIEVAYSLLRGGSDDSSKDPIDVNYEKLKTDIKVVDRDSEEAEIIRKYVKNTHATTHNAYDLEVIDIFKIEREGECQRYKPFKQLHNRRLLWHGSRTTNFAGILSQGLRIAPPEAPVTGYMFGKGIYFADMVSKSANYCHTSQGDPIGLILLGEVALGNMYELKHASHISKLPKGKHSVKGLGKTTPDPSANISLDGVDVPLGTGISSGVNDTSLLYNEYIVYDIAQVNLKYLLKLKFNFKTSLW
T2 sequence (Q9UGN5 whole entry): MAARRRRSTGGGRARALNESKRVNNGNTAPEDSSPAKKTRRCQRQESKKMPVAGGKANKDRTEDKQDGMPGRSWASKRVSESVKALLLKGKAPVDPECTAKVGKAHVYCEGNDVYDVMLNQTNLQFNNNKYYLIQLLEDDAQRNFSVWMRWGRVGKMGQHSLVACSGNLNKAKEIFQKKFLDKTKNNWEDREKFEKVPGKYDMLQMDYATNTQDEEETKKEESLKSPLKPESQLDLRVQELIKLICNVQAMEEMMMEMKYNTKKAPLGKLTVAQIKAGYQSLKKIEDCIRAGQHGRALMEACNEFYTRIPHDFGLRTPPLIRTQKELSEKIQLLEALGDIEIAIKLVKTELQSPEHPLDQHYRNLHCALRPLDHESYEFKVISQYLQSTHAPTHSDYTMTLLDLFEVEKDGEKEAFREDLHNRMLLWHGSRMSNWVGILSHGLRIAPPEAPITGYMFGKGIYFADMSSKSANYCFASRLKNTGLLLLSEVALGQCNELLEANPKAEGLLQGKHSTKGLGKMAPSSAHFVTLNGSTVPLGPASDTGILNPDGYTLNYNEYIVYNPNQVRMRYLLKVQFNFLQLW

NC(=O)c1cccc2[nH]c(C3CCN(CCCN4C(=O)c5ccccc5C4=O)C3)nc12 (centres unmarked) [Compound 5ce, 2-(1-(3-(1,3-Dioxoisoindolin-2-yl)propyl)pyrrolidin-3-yl)-1H-benzo[d]imidazole-4-carboxamide]
inhibition at 0.01 µM ([1]; supplement sheet, read-out: 10 nM inhibition% PAPR-1): 22% | inhibition at 0.01 µM ([1]; read-out: PARP-1 Inhibition % (10 nM)): 22% | inhibition at 0.01 µM ([2]; supplement sheet, read-out: 10 nM inhibition% PAPR-2): 74.6% | inhibition at 0.01 µM ([2]; read-out: PARP-2 Inhibition % (10 nM)): 74.5% | inhibition at 0.00508 µM ([3]; replicate 1, read-out: Inh % 1): 20.1% | inhibition at 0.00508 µM ([3]; replicate 2, read-out: Inh % 2): 0.9% | inhibition at 0.0152 µM ([3]; replicate 1, read-out: Inh % 1): -2.8% | inhibition at 0.0152 µM ([3]; replicate 2, read-out: Inh % 2): -5% | inhibition at 0.0457 µM ([3]; replicate 1, read-out: Inh % 1): -11.2% | inhibition at 0.0457 µM ([3]; replicate 2, read-out: Inh % 2): -11.9% | inhibition at 0.41 µM ([3]; replicate 1, read-out: Inh % 1): -6.1% | inhibition at 0.41 µM ([3]; replicate 2, read-out: Inh % 2): -15.6% | inhibition at 1.23 µM ([3]; replicate 1, read-out: Inh % 1): -8.9% | inhibition at 1.23 µM ([3]; replicate 2, read-out: Inh % 2): -17.5% | inhibition at 3.7 µM ([3]; replicate 1, read-out: Inh % 1): -1.2% | inhibition at 3.7 µM ([3]; replicate 2, read-out: Inh % 2): -9.2% | inhibition at 11.11 µM ([3]; replicate 1, read-out: Inh % 1): 15.7% | inhibition at 11.11 µM ([3]; replicate 2, read-out: Inh % 2): -2.9% | inhibition at 33.33 µM ([3]; replicate 1, read-out: Inh % 1): -10.9% | inhibition at 33.33 µM ([3]; replicate 2, read-out: Inh % 2): -11% | inhibition at 100 µM ([3]; replicate 1, read-out: Inh % 1): 0.113% | inhibition at 100 µM ([3]; replicate 2, read-out: Inh % 2): -9.4% | IC50 ([3]; MDA-MB-436, 72 h, CellTiter-Glo, read-out: MDA-MB-436 IC50): > 100 µM | IC50 ([4]; CAPAN-1, 72 h, CellTiter-Glo, read-out: CAPAN-1 IC50): > 100 µM | inhibition at 0.00508 µM ([4]; replicate 1, read-out: Inh % 1): -4.4% | inhibition at 0.00508 µM ([4]; replicate 2, read-out: Inh % 2): 0.4% | inhibition at 0.0152 µM ([4]; replicate 1, read-out: Inh % 1): -2.3% | inhibition at 0.0152 µM ([4]; replicate 2, read-out: Inh % 2): -0.9% | inhibition at 0.0457 µM ([4]; replicate 1, read-out: Inh % 1): 1.8% | inhibition at 0.0457 µM ([4]; replicate 2, read-out: Inh % 2): 10% | inhibition at […] ([4]; replicate 1, read-out: Inh % 1): -0.6% | inhibition at […] ([4]; replicate 2, read-out: Inh % 2): -2.2% | inhibition at 0.41 µM ([4]; replicate 1, read-out: Inh % 1): 12.8% | inhibition at 0.41 µM ([4]; replicate 2, read-out: Inh % 2): 3.7% | inhibition at 1.23 µM ([4]; replicate 1, read-out: Inh % 1): 7.5% | inhibition at 1.23 µM ([4]; replicate 2, read-out: Inh % 2): 3.7% | inhibition at 3.7 µM ([4]; replicate 1, read-out: Inh % 1): 6.8% | inhibition at 3.7 µM ([4]; replicate 2, read-out: Inh % 2): 9.9% | inhibition at 11.11 µM ([4]; replicate 1, read-out: Inh % 1): 13.7% | inhibition at 11.11 µM ([4]; replicate 2, read-out: Inh % 2): -0.541% | inhibition at 33.33 µM ([4]; replicate 1, read-out: Inh % 1): 11% | inhibition at 33.33 µM ([4]; replicate 2, read-out: Inh % 2): 3.9% | inhibition at 100 µM ([4]; replicate 1, read-out: Inh % 1): 6.1% | inhibition at 100 µM ([4]; replicate 2, read-out: Inh % 2): 4.5%
